# Columns and labels:
# Assay type in all cases: in vivo, mouse
# [1] = 90-minute dynamic PET scanning of [11C]ERGO biodistribution in the brain of 5XFAD mice
# Description: The dynamic acquisition was divided into twelve 5 sec frames, four 60 sec frames, five 120 sec frames, three 5 min frames, and six 10 min scans. The data from all possible lines of response (LOR) were saved in the list mode raw data format. The raw data were then binned into 3D sinograms with a span of 3 and ring difference of 47. The images were reconstructed into transaxial slices (128×128×159) with voxel sizes of 0.0815×0.0815×0.0796 cm^3, using the MAP algorithm with 16 subsets, 4 iterations, and a beta of 0.0468. For anatomical co-registration, immediately following the PET scans, the mice received a CT scan in a NanoSPECT/CT (Mediso, Wash. D.C.) at an X-ray beam intensity of 90 mAs and x-ray peak voltage of 45 kVp. The CT images were reconstructed into 170×170×186 voxels at a voxel size of 0.4×0.4×0.4 mm^3. The PET/CT images were uploaded into Amide software (www.sourceforge.com), co-registered to an MRI template made in-house, and volumetric regions-of-interest were drawn around the cortex, hippocampus, striatum, thalamus, and cerebellum in addition to the whole brain. The PET images were normalized to the injected dose, and the time-activity-curves (TACs) of the mean activity within the ROIs were estimated for the entire duration of the scans.
# To test the distribution of ERGO non-invasively in vivo, approximately 37 MBq/0.1 mL of [^11C]ERGO probe was given to anesthetized 5XFAD mice (8-month-old, n=4) in single bolus intravenous (I.V.) injection via the lateral tail vein. The administration of the probe was simultaneous with the start of a 90-minute dynamic PET imaging, followed by subsequent CT scan. The PET images were normalized to the injected dose, and the time-activity-curves (TACs) of the mean activity within the ROIs were estimated for the entire duration of the scans. Within 5 min post I.V. injection, [^11C]ERGO can be detected in the brain parenchyma (FIG. 1.5A, top panel). […] Using an age-matched mouse brain template, the positron-emitted signal at different brain regions was quantified using AMIDE software. […]
# Abeta = Abeta immunohistochemistry (6E10 antibody) of brain sections after ERGO treatment; settings: ERGO-treated versus non-treated 5XFAD mice, approx. 4 months of age
# Description: To confirm the in vivo observations, animals were perfused, and the brain sections were stained with anti-Abeta antibody, 6E10. […] In particular, we observed a clear difference in the hippocampus, pyramidal cortex and thalamus of non-treated compared to ERGO-treated 5XFAD mice (FIG. 3L, 3.30, 3.3R).
# Quantitative analysis of the PET imaging and IHC data was performed using imageJ software. The data was imported to GraphPad Prism version 9 for Mac (GraphPad Software, San Diego, Calif., USA) for statistical analysis. Differences between groups were tested using unpaired t-test.
# oxidative stress = assay: [11C]ERGO PET imaging of oxidative stress after ERGO treatment; settings: ERGO-treated versus non-treated 5XFAD mice, 20-min dynamic scan after IV injection
# Description: To address our primary question whether longitudinal consumption of ERGO as a potent antioxidant benefit the brain, three cohorts of animals (n=12 non-treated WT control, n=12 non-treated 5XFAD, and n=18 ERGO-treated 5XFAD) were used (FIG. 3.2A). Starting at the age of 8 weeks, the animals were treated with high doses of ERGO solution (25-50 mg/Kg) formulated in double distilled (dd) water via oral gavage three times a week over the course of eight weeks. To reduce bias in the behavioral experiments with regard to the potential stress during gavage treatment, non-treated animals underwent the identical gavage process with the vehicle, water, only. The efficacy of the therapy was evaluated by behavioral testing, followed by three different non-invasive PET imaging sessions to assess biomarkers related to AD pathology. In addition to assessing Abeta levels and glucose metabolism using the [^11C]PIB and [^18F]FDG probes, respectively; we also tested for the first time whether oxidative stress could be used as an indicator of response to therapy using the [^11C]ERGO PET radioligand. Finally, animals were euthanized, and the brains were collected for immunohistochemical analysis.
# Thus, in this study, [^11C]ERGO PET radioligand was used to assess the fluctuation in oxidative stress with respect to ERGO therapy. […]
# GFAP-positive astrocytes = assay: GFAP immunohistochemistry of brain sections after ERGO treatment; settings: ERGO-treated versus non-treated 5XFAD mice
# Description: In this study, after the PET imaging, animals (non-treated 5XFAD (n=3) and ERGO-treated 5XFAD mice (n=5)) were perfused, and the brain sections were stained with antibodies against GFAP and IBA1 for neuroinflammatory markers astrocytes and microglia, respectively.
# Brains embedded in OCT were cut into sagittal sections (10 μm) using a Tissue-Tek cryostat and mounted onto charged glass slides. Prior to staining, slides were washed with PBS (10 min); then, they were treated with blocking buffer (5% normal goat serum, 0.2% Triton X-100, 0.5% bovine albumin in PBS) for 1 h at room temperature. The treated sections were then incubated overnight at 4° C. with primary anti-GFAP antibody (1:100 dilution, Biolegend San Diego, Calif., USA). Slides were washed with PBS (3×) for 10 min each, the sections were subsequently incubated with secondary antibody goat anti-mouse Alexa Fluor 488 (1:200 dilution, Thermo Fisher Scientific, Carlsbad, Calif., USA) for 30 min at room temperature. The sections were then washed with PBS twice for 10 min and once for 30 min, and coverslipped with an antifade mounting medium (Vector Laboratories, Burlingame, Calif.) before observation under a fluorescence microscope.
# Quantitative analysis of the PET imaging and IHC data was performed using imageJ software. […]
SMILES,"time post I.V. injection at which the probe can be detected in the brain parenchyma ([1]; 8-month-old, approx. 37 MBq/0.1 mL single I.V. bolus) [min]",retention of the probe in the brain ([1]; 30 min post radiotracer injection),"regional distribution of the probe in the brain (PET signal) ([1]; approx. 37 MBq/0.1 mL I.V., 90-min dynamic PET)","decrease in Abeta level (pixel counts), hippocampus (Abeta) [fold]","decrease in Abeta level (pixel counts), pyramidal cortex (Abeta) [fold]","decrease in Abeta level (pixel counts), thalamus (Abeta) [fold]",[11C]ERGO PET signal pertaining to oxidative stress in the brain (oxidative stress),reduction of GFAP-positive astrocytes in the hippocampus (GFAP-positive astrocytes) [%]
C[N+](C)([11CH3])[C@@H](Cc1c[nH]c(=S)[nH]1)C(=O)[O-] [[^11C]ERGO],≤ 5,still remained in the brain,high concentration in the cerebellum and cortex,–,–,–,–,–
"C[N+](C)(C)[C@@H](Cc1c[nH]c(=S)[nH]1)C(=O)[O-] [ERGO, L-ergothioneine]",–,–,–,4,5,2,very modest reduction in PET signal,~50

# Source: US20230097883A1, “ERGOTHIONEINE PET COMPOUNDS AND METHODS OF USE THEREOF” (VANDERBILT UNIVERSITY, priority 2021, published 2023)
